Read-outs that look alike come from different tables or passages of the source.
How the values were obtained:
[1] = target: Firefly luciferase (Fluc, EC 1.13.12.7) (Photinus pyralis, UniProt P08659); assay: biochemical; design: single determination (the paper says generally: 'qHTS assays were performed in a single replicate with a 7- to 11-point dose response format'; it is not stated for this counterscreen itself)
in vitro [2] = conditions: human, HepG2 cells; n = 1
[3] = Parallel artificial membrane permeability assay (PAMPA); assay type: in vitro ADME; conditions: pH 7.4
Method: (§1) Pharmacokinetic modeling experiments, parallel artificial membrane permeability assay (PAMPA), solubility, and rat liver microsome stability assessment were performed on all synthetic compounds, as previously described[73]–[75].

[4] = Rat liver microsomal stability (RLMS); conditions: rat, rat liver microsomes
Method: as §1

[5] = tested on: P. falciparum Dd2 Cytb F123L; assay: SYBR Green ABS proliferation assay, NCGC00473217 selected clone G08; assay type: cell-based, Plasmodium falciparum; conditions: Plasmodium falciparum, DD2, NCGC00473217 selected clone G08; highest concentration 29 µM; read-out: AC50 [μM], Cytb F123L (converted)
Procedure, shortened: (§2)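 Proliferation of cytb-mutant Dd2 clones was measured by SYBR Green-I fluorescence at 72 h, normalized to controls.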

[6] = tested on: P. falciparum Dd2 Cytb V259L; assay: SYBR Green ABS proliferation assay, NCGC00473217 selected clone F06; assay type: cell-based, Plasmodium falciparum; conditions: Plasmodium falciparum
Procedure, shortened: as §2

[7] = tested on: P. falciparum Dd2 Cytb A122D; assay: SYBR Green ABS proliferation assay, NCGC00473217 selected clone F12; assay type: cell-based, Plasmodium falciparum; conditions: Plasmodium falciparum
Procedure, shortened: as §2

[8] = tested on: P. falciparum Dd2 Cytb G131S; assay: SYBR Green ABS proliferation assay, NCGC00374598 selected clone C11; assay type: cell-based, Plasmodium falciparum; conditions: Plasmodium falciparum
Procedure, shortened: as §2

Aqueous solubility = assay type: physicochemical; conditions: aqueous media
Method: as §1

[9] = tested on: P. falciparum Dd2 (clone B2) asexual blood stage parasites; assay: P. falciparum Dd2 asexual blood stage SYBR Green-I 72 h proliferation assay (qHTS); assay type: cell-based, Plasmodium falciparum; conditions: Plasmodium falciparum, DD2, 72 h, SYBR Green 72 h
[10] = tested on: luciferase-expressing P. berghei liver stage parasites in HepG2 cells; assay: Inhibition of liver-stage development assay (ILSDA), Method 2 (WRAIR, 96-well); assay type: cell-based, Plasmodium berghei; conditions: for AC50: Plasmodium berghei, HepG2, Method 2
[11] = tested on: Plasmodium falciparum Dd2 asexual blood stage parasites; assay: microbe, parasite or virus in culture; design: species or system Plasmodium falciparum Dd2 in human erythrocytes; single determination (one 11-point concentration-response curve); conditions: Plasmodium falciparum, DD2, Erythrocyte, 72 h; read-out: AC50
in vitro [12] = conditions: human, HepG2-A16-CD81EGFP cells, uninfected
HepG2 = conditions: human, hepg2 cells, 48 h
in vitro [13] = conditions: human, hepg2 cells
[14] = tested on: P. berghei-ANKA-GFP-LucCON liver stage parasites in HepG2-A16-CD81EGFP cells; assay: P. berghei liver stage Pb-Luc assay, Method 1 (UCSD, 1536-well); assay type: cell-based, Plasmodium berghei; conditions: Plasmodium berghei, 48 h, P. berghei liver stage, average of 2 wells on a 1536 well plate; for activity at 1 µM: 1 µM compound treatment (10 mM stocks); for activity at 3 µM: 3 µM compound treatment (10 mM stocks)
HepG2-A16-CD81EGFP cells = conditions: average of 2 wells
[15] = DD2, NCGC00473217 selected clone F06, read-out: AC50 [μM], Cytb V259L (converted)
[16] = DD2, NCGC00473217 selected clone, read-out: AC50 Log[M] ± SD, Cytb V259L (converted)
[17] = DD2, NCGC00473217 selected clone F12, read-out: AC50 [μM], Cytb A122D (converted)
[18] = DD2, NCGC00473217 selected clone, read-out: AC50 Log[M] ± SD, Cytb A122D (converted)
[19] = DD2, NCGC00374598 selected clone C11, read-out: AC50 [μM], Cytb G131S (converted)
[20] = DD2, NCGC00374598 selected clone, read-out: AC50 Log[M] ± SD, Cytb G131S (converted)
[21] = WT Dd2-B2, read-out: AC50 Log[M] ± SD, Dd2-B2 (parental line) (converted)
[22] = approximate value in μM, read-out: AC50 [μM], Dd2-B2 (parental line) (converted)

Chain of Firefly luciferase (Fluc, EC 1.13.12.7) (P08659 whole entry): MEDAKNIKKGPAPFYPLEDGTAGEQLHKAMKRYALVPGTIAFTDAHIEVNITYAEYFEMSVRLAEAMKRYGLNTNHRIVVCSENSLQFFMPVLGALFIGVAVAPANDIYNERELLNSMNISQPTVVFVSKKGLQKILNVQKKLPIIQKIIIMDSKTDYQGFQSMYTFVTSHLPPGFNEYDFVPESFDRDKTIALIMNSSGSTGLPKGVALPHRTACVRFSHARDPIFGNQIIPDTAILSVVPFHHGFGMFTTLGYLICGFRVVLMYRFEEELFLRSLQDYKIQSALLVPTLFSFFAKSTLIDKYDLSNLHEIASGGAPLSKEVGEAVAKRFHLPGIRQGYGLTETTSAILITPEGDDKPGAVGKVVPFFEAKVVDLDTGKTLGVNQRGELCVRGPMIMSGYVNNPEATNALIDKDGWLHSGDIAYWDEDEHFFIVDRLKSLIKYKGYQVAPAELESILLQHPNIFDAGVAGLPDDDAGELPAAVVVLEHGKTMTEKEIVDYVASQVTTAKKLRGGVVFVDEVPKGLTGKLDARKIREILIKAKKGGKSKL

AC50 [1] [µM] | SMILES | half-life [4] [min] | AC50 [5] [µM] | AC50 [6, 15] [µM] | AC50 [7, 17] [µM] | AC50 [8, 19] [µM] | solubility (Aqueous solubility) [µg/mL] | AC50 [9, 22] [M] | AC50 [11] [µM] | also measured
0.622 | O=C1c2cnc(-c3cc4ccccc4o3)nc2OCCN1c1ccccc1 [NCGC00413607-01] |  |  |  |  |  |  |  |  | CC50 at 48 h (in vitro [2]): 8.86 µM
 | CCCN1C(CC(C)C)=NS(=O)(=O)c2cc(NC(=O)c3sccc3F)ccc21 [NCGC00523542] | 4.6 | > 29 | 5.43 | 1.31 | 1.78 | < 1 | 1.59e-06 |  | PAMPA pH7.4 [3]: 770 1e-6 cm/s; AC50 [6, 16]: 5.37 µM; AC50 [7, 18]: 1.32 µM; AC50 [8, 20]: 1.78 µM; AC50 [9, 21]: 1.58e-06 M
 | CCCN1C(CC2CCC2)=NS(=O)(=O)c2cc(NC(=O)c3cccs3)ccc21 [NCGC00537664] | 4.3 | > 29 | 1.19 | 1.35 | 0.466 | < 1 | 4.48e-07 |  | AC50 [6, 16]: 1.2 µM; AC50 [7, 18]: 1.35 µM; AC50 [8, 20]: 0.468 µM; AC50 [9, 21]: 4.47e-07 M
 | CCCN1C(CC(C)C)=NS(=O)(=O)c2cc(NC(=O)c3ccsc3)ccc21 [NCGC00521157] | 3.7 | > 29 | > 29 | > 29 | 2.08 | < 1 | 2e-06 |  | PAMPA pH7.4 [3]: 178 1e-6 cm/s; AC50 [8, 20]: 2.09 µM; AC50 [9, 21]: 2e-06 M
19.2 | Cc1cccnc1Nc1nc(-c2ccccn2)cs1 [MLS000528306-01] |  |  |  |  |  |  |  | 0.473 | Log AC50 (M) (HepG2): -5.9643 M; CC50 at 48 h (in vitro [13]): 1.09 µM; viability at 48 h, 1 µM (in vitro [12]): 57%; viability at 48 h, 3 µM (in vitro [12]): 30%
12.1 | Cc1ccc(-c2cc(O)c3cc(C)ccc3n2)cc1 [MLS000517822-01] |  |  |  |  |  |  |  | 10.6 | 
 | CCCN1C(CC(C)C)=NS(=O)(=O)c2cc(NC(=O)c3ccc(Cl)s3)ccc21 [NCGC00523535] | 3.8 | > 29 | 7.1 | > 29 | 1 | < 1 | 1.53e-06 |  | AC50 [6, 16]: 7.08 µM; AC50 [8, 20]: 1 µM; AC50 [9, 21]: 1.51e-06 M
0.0136 | Nc1ncnc2c1ncn2[C@@H]1O[C@H](CN[S+](=O)([O-])NC(=O)c2cccc(-c3noc(-c4ccccc4F)n3)c2)[C@@H](O)[C@H]1O [NCGC00183809-01] |  |  |  |  |  |  |  |  | CC50 at 48 h (in vitro [2]): 1.72 µM
4.82 | CCc1ccc(C2=CC(c3cccc(C)c3)n3c(nc4ccccc43)N2)cc1 (centres unmarked) [NCGC00140745-01] |  |  |  |  |  |  |  | 15 | 
 | CCCN1C(CC(C)C)=NS(=O)(=O)c2cc(NC(=O)c3ccc(Cl)cc3)ccc21 [NCGC00531775] | 4.1 | > 29 | > 29 | > 29 | 0.2 | < 1 | 1.26e-06 |  | AC50 [8, 20]: 0.2 µM; AC50 [9, 21]: 1.26e-06 M
8.57 | c1ccc2sc(Sc3ncnc4sccc34)nc2c1 [MLS000334432-01] |  |  |  |  |  |  |  | 0.944 | 
12.1 | Cc1ccc(C)c(/N=N/c2nc3ccccc3n2C)c1 [MLS000577452-01] |  |  |  |  |  |  |  | 0.299 | viability at 48 h, 1 µM (in vitro [12]): 95%; viability at 48 h, 3 µM (in vitro [12]): 88%
17.1 | Cc1cc(N2CCN(C)CC2)nc2ccc(NC(=O)Nc3ccccc3Br)cc12 [NCGC00126483-01] |  |  |  |  |  |  |  |  | Log AC50 (M) (HepG2): -4.3643 M; CC50 at 48 h (in vitro [13]): 43.2 µM
 | CN1C(c2ccccc2)=NS(=O)(=O)c2cc(NC(=O)c3ccc(F)s3)ccc21 [NCGC00651712] | > 30 | > 29 | > 29 | > 29 | > 29 | < 1 | > 2.9e-05 |  | 
0.0171 | COc1cc(SC)ccc1C(=O)Nc1nc2ccccc2[nH]1 [MLS001172173-01] |  |  |  |  |  |  |  |  | CC50 at 48 h (in vitro [2]): 19.3 µM
10.8 | NC(=NOC(=O)c1cccc(F)c1)c1ccccn1 [MLS001075504-01] |  |  |  |  |  |  |  |  | Log AC50 (M) (HepG2): -4.8143 M; CC50 at 48 h (in vitro [13]): 15.3 µM
 | CN1C(CC2CCCCC2)=NS(=O)(=O)c2cc(NC(=O)c3ccc(F)cc3)ccc21 [NCGC00651716] | 6.6 | > 29 | > 29 | > 29 | > 29 | < 1 | > 2.9e-05 |  | 
6.81 | Cn1c(/N=N/c2ccccc2)nc2ccccc21 [MLS000700530-01] |  |  |  |  |  |  |  | 0.841 | CC50 at 48 h (in vitro [2]): 12.2 µM; viability at 48 h, 1 µM (in vitro [12]): 91%; viability at 48 h, 3 µM (in vitro [12]): 70%
 | CCCN1C(CC(C)C)=NS(=O)(=O)c2cc(NC(=O)c3ccc(F)cc3)ccc21 [NCGC00521139] | 6.3 | > 29 | > 29 | > 29 | 0.355 | < 1 | 5.23e-07 |  | AC50 [8, 20]: 0.355 µM; AC50 [9, 21]: 5.25e-07 M
 | CN1C(CC2CCCCC2)=NS(=O)(=O)c2cc(NC(=O)c3ccc(F)s3)ccc21 [NCGC00651709] | 12.9 | > 29 | > 29 | > 29 | > 29 | < 1 | 1.5e-06 |  | AC50 [9, 21]: 1.48e-06 M

SMILES | AC50 [1] [µM] | half-life [4] [min] | AC50 [5] [µM] | AC50 [6, 15] [µM] | AC50 [7, 17] [µM] | AC50 [8, 19] [µM] | solubility (Aqueous solubility) [µg/mL] | AC50 [9, 22] [M] | AC50 [11] [µM] | also measured
CCCc1ccc(C(=O)NC(=O)c2ccccc2O)cc1 [MLS000850457-01] | 5.41 |  |  |  |  |  |  |  | 1.06 | Max Resp (signal direction of the dose response) ([10]; Method 2, Decrease = decreasing P. berghei viability with dose, Increase = increasing signal, Inactive = no dose response): Decrease; AC50 ([10]; Hill fit, 50% of maximum activity response, read-out: AC50): 0.282 µM; AC50 ([10]; log10 of molar AC50 from Hill fit, read-out: Log AC50 (converted)): 0.282 µM; viability at 48 h, 1 µM (in vitro [12]): 101%; viability at 48 h, 3 µM (in vitro [12]): 94%
N=c1n(N)c2ccccc2n1CC(=O)c1ccc(Br)cc1 [MLS001183984-01] | 12.1 |  |  |  |  |  |  |  |  | viability at 66 h (in vitro [12]): 103%
CCN(CC)CCN1C(=O)c2ccccc2NC1c1ccc(N(C)C)cc1 (centres unmarked) [MLS000554078-01] | 1.92 |  |  |  |  |  |  |  | 4.22 | 
Cc1nn(-c2ccccc2)c(C)c1/C=N/Nc1nc2ccccc2[nH]1 [MLS000332160-01] | 12.1 |  |  |  |  |  |  |  | 1.5 | activity at 1 µM ([14]; replicate 1, normalized, read-out: PbLuc 1uM growth rep1): 86%; activity at 1 µM ([14]; replicate 2, normalized, read-out: PbLuc 1uM growth rep2): 81%; activity at 3 µM ([14]; replicate 1, normalized, read-out: PbLuc 3uM growth rep1): 33%; activity at 3 µM ([14]; replicate 2, normalized, read-out: PbLuc 3uM growth rep2): 53%; HepG2 1uM growth rep1 (HepG2-A16-CD81EGFP cells; HepG2, 1 µM compound treatment (10 mM stocks), replicate 1, normalized): 93%; HepG2 1uM growth rep2 (HepG2-A16-CD81EGFP cells; HepG2, 1 µM compound treatment (10 mM stocks), replicate 2, normalized): 90%; HepG2 3uM growth rep1 (HepG2-A16-CD81EGFP cells; HepG2, 3 µM compound treatment (10 mM stocks), replicate 1, normalized): 89%; HepG2 3uM growth rep2 (HepG2-A16-CD81EGFP cells; HepG2, 3 µM compound treatment (10 mM stocks), replicate 2, normalized): 86%

— article PMC7822874, “Chemoprotective antimalarials identified through quantitative high-throughput screening of Plasmodium blood and liver stage parasites” (Scientific Reports, 2021)
